In US20180319810A1, “SUBSTITUTED BRIDGED UREA ANALOGS AS SIRTUIN MODULATORS” (GlaxoSmithKline Intellectual Property (No.2) Limited, priority 2014, published 2018):

The compounds below were run against T1, SIRT1 (Homo sapiens, UniProt Q96EB6) (assay: Trp mass spectrometry assay of SIRT1 activation). Conditions: Trp peptide Ac-R-H-K-K(Ac)-W-NH2 0.5 μM, 120 μM βNAD+, 10 nM SIRT1, 25 min, 25° C.
T1 sequence (Q96EB6 1-747): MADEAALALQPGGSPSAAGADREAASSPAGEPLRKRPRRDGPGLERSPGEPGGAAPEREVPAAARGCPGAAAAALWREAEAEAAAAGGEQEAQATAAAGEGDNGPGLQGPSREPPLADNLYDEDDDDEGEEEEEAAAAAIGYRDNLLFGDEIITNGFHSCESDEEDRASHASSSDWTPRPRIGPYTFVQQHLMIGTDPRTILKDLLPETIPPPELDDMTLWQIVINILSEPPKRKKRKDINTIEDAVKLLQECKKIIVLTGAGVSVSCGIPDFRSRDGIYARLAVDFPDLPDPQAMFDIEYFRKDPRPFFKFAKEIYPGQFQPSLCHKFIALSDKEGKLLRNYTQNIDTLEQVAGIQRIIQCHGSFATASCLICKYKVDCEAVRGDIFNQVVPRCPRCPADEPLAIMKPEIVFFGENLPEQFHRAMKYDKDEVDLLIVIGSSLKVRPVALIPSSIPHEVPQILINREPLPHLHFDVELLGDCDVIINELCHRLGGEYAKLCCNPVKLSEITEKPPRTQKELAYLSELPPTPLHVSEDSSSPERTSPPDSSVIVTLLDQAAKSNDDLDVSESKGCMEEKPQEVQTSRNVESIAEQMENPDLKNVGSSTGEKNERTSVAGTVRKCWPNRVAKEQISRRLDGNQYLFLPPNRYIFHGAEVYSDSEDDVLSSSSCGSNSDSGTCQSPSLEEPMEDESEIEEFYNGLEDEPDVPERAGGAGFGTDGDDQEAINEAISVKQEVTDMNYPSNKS
Type: biochemical

TRP Activity (EC1.5, concentration of compound required to increase SIRT1 activity by 50% over control)	TRP MAX RESP (percent maximum fold activation relative to control)	SMILES
A (EC1.5<1 μM)	A (Fold activation ≥150%)	O=C(Nc1ccnc(OC[C@H](O)CO)n1)N1c2nc(-c3cccc(C(F)(F)F)c3)ncc2N2CCC[C@H]1C2 [Example 88, (9S)—N-(2-((R)-2,3-dihydroxypropoxy)pyrimidin-4-yl)-2-(3-(trifluoromethyl)phenyl)-8,9-dihydro-6H-5,9-methanopyrimido[4,5-b][1,4]diazocine-10(7H)-carboxamide]
A (EC1.5<1 μM)	A (Fold activation ≥150%)	Cc1nc(C(=O)N[C@H](C)C(F)(F)F)nc2c1N1CCC[C@@H](C1)N2C(=O)Nc1cc(OC[C@H](O)CO)ccn1 [Example 67, (9S)—N10-(4-((R)-2,3-dihydroxypropoxy)pyridin-2-yl)-4-methyl-N2-((R)-1,1,1-trifluoropropan-2-yl)-8,9-dihydro-6H-5,9-methanopyrimido[4,5-b][1,4]diazocine-2,10(7H)-dicarboxamide]
A (EC1.5<1 μM)	A (Fold activation ≥150%)	O=C(Nc1ccc(OC[C@H](O)CO)nc1)N1c2nc(-c3cccc(C(F)(F)F)c3)ncc2N2CCC[C@H]1C2 [Example 82, (9S)—N-(6-((R)-2,3-dihydroxypropoxy)pyridin-3-yl)-2-(3-(trifluoromethyl)phenyl)-8,9-dihydro-6H-5,9-methanopyrimido[4,5-b][1,4]diazocine-10(7H)-carboxamide]
B (EC1.5 1-25 μM)	A (Fold activation ≥150%)	Cc1ccc2c(NC(=O)N3c4nc(C(=O)NC(CO)C(F)(F)F)ncc4N4CCC[C@H]3C4)n[nH]c2n1 (single isomer, unassigned) [Example 68]
B (EC1.5 1-25 μM)	A (Fold activation ≥150%)	C[C@@H](NC(=O)c1ncc2c(n1)N(C(=O)Nc1cccc(OC[C@@H](O)CO)n1)[C@H]1CCCN2C1)C(F)(F)F [Example 117, (9S)—N10-(6-((S)-2,3-dihydroxypropoxy)pyridin-2-yl)-N2-((R)-1,1,1-trifluoropropan-2-yl)-8,9-dihydro-6H-5,9-methanopyrimido[4,5-b][1,4]diazocine-2,10(7H)-dicarboxamide]
B (EC1.5 1-25 μM)	A (Fold activation ≥150%)	C[C@@H](NC(=O)c1ncc2c(n1)N(C(=O)Nc1cc(OC[C@@H](O)CO)ncn1)[C@H]1CCCN2C1)C(F)(F)F [Example 75, (9S)—N10-(6-((S)-2,3-dihydroxypropoxy)pyrimidin-4-yl)-N2-((R)-1,1,1-trifluoropropan-2-yl)-8,9-dihydro-6H-5,9-methanopyrimido[4,5-b][1,4]diazocine-2,10(7H)-dicarboxamide]
A (EC1.5<1 μM)	A (Fold activation ≥150%)	O=C(Nc1cnc(OC[C@@H](O)CO)cn1)N1c2nc(-c3cccc(C(F)(F)F)c3)ncc2N2CCC[C@H]1C2 [Example 83, (9S)—N-(5-((S)-2,3-dihydroxypropoxy)pyrazin-2-yl)-2-(3-(trifluoromethyl)phenyl)-8,9-dihydro-6H-5,9-methanopyrimido[4,5-b][1,4]diazocine-10(7H)-carboxamide]

The remaining lines, values behind:

SMILES	TRP Activity (EC1.5, concentration of compound required to increase SIRT1 activity by 50% over control)	TRP MAX RESP (percent maximum fold activation relative to control)
CCNC(=O)N1c2nc(-c3cccc(C(F)(F)F)c3)ncc2N2CC[C@H]1C2.Cl [Example 21, (8S)—N-ethyl-2-(3-(trifluoromethyl)phenyl)-7,8-dihydro-5,8-methano pyrimido[4,5-b][1,4]diazepine-9(6H)-carboxamide, Hydrochloride]	A (EC1.5<1 μM)	A (Fold activation ≥150%)
O=C(Nc1cnc(OC[C@@H](O)CO)cn1)N1c2nc(-c3cccc(C(F)(F)F)c3)ncc2N2CC[C@H]1C2 [Example 23, (8S)—N-(5-((S)-2,3-dihydroxypropoxy)pyrazin-2-yl)-2-(3-(trifluoromethyl)phenyl)-7,8-dihydro-5,8-methanopyrimido[4,5-b][1,4]diazepine-9(6H)-carboxamide]	B (EC1.5 1-25 μM)	A (Fold activation ≥150%)
O=C(Nc1ccnc(OC[C@H](O)CO)n1)N1c2nc(-c3cccc(C(F)(F)F)c3)ncc2N2CC[C@H]1C2 [Example 28, (8S)—N-(2-((R)-2,3-dihydroxypropoxy)pyrimidin-4-yl)-2-(3-(trifluoromethyl)phenyl)-7,8-dihydro-5,8-methanopyrimido[4,5-b][1,4]diazepine-9(6H)-carboxamide]	B (EC1.5 1-25 μM)	A (Fold activation ≥150%)
O=C(Nc1ccc(OC[C@H](O)CO)cn1)N1c2nc(-c3cccc(C(F)(F)F)c3)ncc2N2CC[C@H]1C2 [Example 40, (8S)—N-(5-((R)-2,3-dihydroxypropoxy)pyridin-2-yl)-2-(3-(trifluoromethyl)phenyl)-7,8-dihydro-5,8-methanopyrimido[4,5-b][1,4]diazepine-9(6H)-carboxamide]	A (EC1.5<1 μM)	A (Fold activation ≥150%)
O=C(Nc1cc(F)cc(-c2cccnc2)c1)N1c2nc(-c3cccc(C(F)(F)F)c3)ncc2N2CC[C@H]1C2 [Example 27, (8S)—N-(3-fluoro-5-(pyridin-3-yl)phenyl)-2-(3-(trifluoromethyl)phenyl)-7,8-dihydro-5,8-methanopyrimido[4,5-b][1,4]diazepine-9(6H)-carboxamide]	A (EC1.5<1 μM)	A (Fold activation ≥150%)
O=C(Nc1ccnc(OC2CCOCC2)n1)N1c2nc(-c3cccc(C(F)(F)F)c3)ncc2N2CC[C@H]1C2 [Example 19, (8S)—N-(2-((tetrahydro-2H-pyran-4-yl)oxy)pyrimidin-4-yl)-2-(3-(trifluoromethyl)phenyl)-7,8-dihydro-5,8-methanopyrimido[4,5-b][1,4]diazepine-9(6H)-carboxamide]	B (EC1.5 1-25 μM)	A (Fold activation ≥150%)
O=C(Nc1cnnc(OC[C@H](O)CO)c1)N1c2nc(-c3cccc(C(F)(F)F)c3)ncc2N2CC[C@H]1C2 [Example 44, (8S)—N-(6-((R)-2,3-dihydroxypropoxy)pyridazin-4-yl)-2-(3-(trifluoromethyl)phenyl)-7,8-dihydro-5,8-methanopyrimido[4,5-b][1,4]diazepine-9(6H)-carboxamide]	B (EC1.5 1-25 μM)	A (Fold activation ≥150%)
O=C(Nc1cccc(OC[C@@H](O)CO)n1)N1c2nc(-c3cccc(C(F)(F)F)c3)ncc2N2CC[C@H]1C2 [Example 31, (8S)—N-(6-((S)-2,3-dihydroxypropoxy)pyridin-2-yl)-2-(3-(trifluoromethyl)phenyl)-7,8-dihydro-5,8-methanopyrimido[4,5-b][1,4]diazepine-9(6H)-carboxamide]	A (EC1.5<1 μM)	A (Fold activation ≥150%)
Cc1ncc(-c2ccnc(NC(=O)N3c4nc(C(=O)NCC(F)(F)F)ncc4N4CC[C@H]3C4)c2)o1 [Example 61, (8S)—N9-(4-(2-methyloxazol-5-yl)-pyridin-2-yl)-N2-(2,2,2-trifluoroethyl)-7,8-dihydro-5,8-methanopyrimido-[4,5-b][1,4]-diazepine-2,9(6H)-dicarboxamide]	B (EC1.5 1-25 μM)	A (Fold activation ≥150%)
O=C(Nc1cc(OC[C@H](O)CO)ccn1)N1c2nc(-c3cccc(C(F)(F)F)c3)ncc2N2CC[C@H]1C2 [Example 33, (8S)—N-(4-((R)-2,3-dihydroxypropoxy)pyridin-2-yl)-2-(3-(trifluoromethyl)phenyl)-7,8-dihydro-5,8-methanopyrimido[4,5-b][1,4]diazepine-9(6H)-carboxamide]	B (EC1.5 1-25 μM)	A (Fold activation ≥150%)
O=C(Nc1ccnc(OC[C@@H](O)CO)n1)N1c2nc(-c3cccc(C(F)(F)F)c3)ncc2N2CC[C@H]1C2 [Example 17, (8S)—N-(2-((S)-2,3-dihydroxypropoxy)pyrimidin-4-yl)-2-(3-(trifluoromethyl)phenyl)-7,8-dihydro-5,8-methanopyrimido[4,5-b][1,4]diazepine-9(6H)-carboxamide]	B (EC1.5 1-25 μM)	A (Fold activation ≥150%)
